# Source: patent publication US7994313B2 (priority 2005, dated 2011)
# Key:
# [1] = target: peripheral benzodiazepine receptor ("PBR") (Homo sapiens, UniProt P30536); details: cited from earlier work
# [2] = target: mitochondrial F1Fo-ATPase; details: cited from earlier work
# [3] = tested on: central benzodiazepine receptor; details: cited from earlier work
# [4] = target: T1, mitochondrial F0F1 ATPase (Homo sapiens, UniProt P48047); assay: ATP synthesis; type: biochemical; details: compared with solvated Bz-423 (FIG. 12)
# [5] = tested on: cells; assay: Cell viability; type: cell-based; details: compared with solvated Bz-423 (FIG. 13)
# [6] = Water solubility at 37° C.; details: versus solvated Bz-423
# [7] = target: T1, mitochondrial F0F1 ATPase; assay: ATP hydrolysis; type: biochemical; details: compared with solvated Bz-423 (FIG. 11)
# [8] = Simulated gastric fluid solubility at 37° C.; type: physicochemical; details: versus solvated Bz-423
# [9] = tested on: rodents; details: two daily doses; cited from earlier work
# Sequence of peripheral benzodiazepine receptor ("PBR") (P30536 whole entry, species assumed): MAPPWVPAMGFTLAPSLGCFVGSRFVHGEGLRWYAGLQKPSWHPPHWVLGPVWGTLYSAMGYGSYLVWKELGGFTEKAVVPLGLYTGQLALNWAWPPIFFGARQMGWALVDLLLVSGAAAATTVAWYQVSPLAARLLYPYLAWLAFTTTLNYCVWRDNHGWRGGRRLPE
smiles,measurement,setting,value
CN1C(=O)C(Cc2ccc3ccccc3c2)N=C(c2ccc(O)cc2)c2cc(Cl)ccc21 (stereo not shown) [Bz-423],Kd,[1],~1000 nM
same,Ki,[2],~9 µM
same,binding to the central benzodiazepine receptor,[3],prevents binding to the central benzodiazepine receptor
CN1C(=O)C(Cc2ccc3ccccc3c2)N=C(c2ccc(O)cc2)c2cc(Cl)ccc21 (stereo not shown) [anhydrous BZ-423 ball milled],ATP synthesis,[4],not inhibiting cell synthesis
same,cell viability,[5],not affecting cell viability
same,"water solubility, comparison in words",[6],more soluble than solvated Bz-423
same,ATP hydrolysis,[7],capable of inhibiting ATP hydrolysis
same,"solubility in simulated gastric fluid, comparison in words",[8],more soluble than solvated Bz-423
"CC[C@H]1/C=C/C=C/C[C@@H](C)[C@H](O)[C@@](C)(O)C(=O)[C@@H](C)[C@H](O)[C@@H](C)C(=O)[C@@H](C)[C@H](O)[C@@H](C)/C=C/C(=O)O[C@@H]2[C@H](C)[C@H](CC1)O[C@]1(CC[C@H](C)[C@H](C[C@@H](C)O)O1)[C@H]2C [oligomycin, reference compound]",IC50,[2],10 nM
same,LD50,[9],0.5 mg/kg
